From US4455303A, “Renin inhibitors” (priority 1983, dated 1984)
Like-named read-outs stand apart in the source and are kept apart here. Where a SMILES comes first, the peptide text is derived from it. Where no end group is shown, it is not given here. [ ]: non-standard residue; d: D form. Phe(4-Cl) = N[C@@H](Cc1ccc(Cl)cc1)C(=O)O

How the values were obtained:
[1] = tested on: renin dependent hypertension; assay: Acute renovascular hypertension model, inflatable aortic cuff, monkey; format: in vivo, Macaca fascicularis; conditions: one monkey, cuff inflated
Description: The animal model of acute renovascular hypertension is prepared by surgically implanting an inflatable cuff about the aorta above the left kidney of an adult Macaca fascicularis as descirbed by Cody, R. J. et al (1980) Hypertension. The right kidney is subsequently removed and catheters implanted in the right iliac vein and artery. Two arterial catheters lead from above and below the constricting cuff to strain gauges permit blood pressure to be measured both above and below the cuff.
Inflation of the cuff creates a measurable amount of ischemia to the remaining kidney and renin dependent hypertension develops in about one hour.
The results of the injection of (RI-78) on the blood pressure and plasma renin level of one monkey are summarized below. The converting enzyme inhibitor teprotide (Ondetti et al, 19) is used as a control.

[2] = target: T1, human renin (Homo sapiens, UniProt P00797); assay: IC50 on human renin, angiotensin I generation from tetradecapeptide renin substrate (assay of Burton et al); format: biochemical
T1 sequence (P00797 67-406): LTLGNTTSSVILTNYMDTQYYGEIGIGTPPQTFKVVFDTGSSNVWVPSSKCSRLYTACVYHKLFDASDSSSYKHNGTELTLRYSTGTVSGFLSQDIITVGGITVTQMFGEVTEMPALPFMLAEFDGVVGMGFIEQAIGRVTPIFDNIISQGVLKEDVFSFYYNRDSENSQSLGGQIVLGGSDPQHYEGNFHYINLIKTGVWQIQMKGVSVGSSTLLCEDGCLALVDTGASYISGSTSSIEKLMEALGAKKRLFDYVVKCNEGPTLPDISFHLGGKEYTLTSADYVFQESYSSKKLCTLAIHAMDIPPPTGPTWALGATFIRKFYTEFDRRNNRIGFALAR
Description: The assay for testing the inhibitory activities of the pentapeptides on renin is described in Burton, J. et al, Biochem. 14: 3892-3898 (1975), which is herein incorporated by reference.
The 11 pentapeptides shown in Table I were synthesized by standard solid phase peptide synthesis as shown in the description following the table and the IC50 (concentration at which inhibition is 50%) value on human renin in the assay of Burton et al, supra, was determined for each sample.
Angiotensin I standards and tetradecapeptide renin substrate (TDP) were obtained from Peninsula Laboratories Inc. (San Mateo, CA). Renin was a gift of Dr. E. Slater (1980). Angiotensin I concentration was determined by radioimmunoassay using a commercially available kit (Clinical Assays, Cambridge, MA).
Standard renin solution (V3) is diluted 4-fold with M Tris-lysozyme buffer (pH 7.40). Concentration of […] of the renin inhibitor being tested are also prepared in the Tris-lysozyme buffer. For the uninhibited reaction Tris-lysozyme buffer alone is used in place of the inhibitor solution.
Reaction mixtures containing TDP solution ([…], 25 µM), renin solution (50 liters, 20-fold diluted), and the inhibitor (50 liters, 50-1000 M) were incubated for 1 hr at 37°, diluted 1000-fold and assayed for angiotensin I.
Inhibition is determined by the following equation:
% Inh.=((ng ANG Iunhib -ng ANG Iinh)/ng ANG
IC50 is determined by plotting Percent inhibition (% Inh.) against the inhibitor concentration and interpolating to determine the molarity of inhibitor at which 50% inhibition is observed.
Cross-reactivity of TDP with ANG I is less than 0.05%.

[3] = tested on: isolated gut section; assay: In vitro transport of radiolabeled pentapeptide across isolated gut section; format: in vitro ADME; conditions: radiolabeled pentapeptide added to one side of an isolated gut section, label measured on the other side
Source text: Of particular interest is the fact that the peptides of the present invention are short chained, and can potentially be used as orally active peptides.

[4] = target: renin; conditions: pH 7.4; Poulsen et al 1973; read-out: inhibitory constant (KI); cited from earlier work
[5] = IC50 (concentration at which inhibition is 50%), Table I, human renin
[6] = IC50, TDP substrate, pH 7.40, 1 hr at 37°
[7] = Table I, human renin, read-out: IC50 (concentration at which inhibition is 50%)
[8] = time 145 min, injection of teprotide (control)
[9] = printed with the characterisation data of each peptide, TDP substrate, pH 7.40, 1 hr at 37°, read-out: IC50

CC(C)[C@H](NC(=O)[C@H](Cc1ccccc1)NC(=O)[C@@H](N)Cc1ccc(Cl)cc1)C(=O)N[C@@H](Cc1ccc(O)cc1)C(=O)N[C@@H](CCCCN)C(N)=O [RI-78, 4-chlorophenylalanylphenylalanylvalyltyrosyllysine-amide] (H-[Phe(4-Cl)]FVYK-NH2)
Blood Pressure ([1]; time 0 min, injection 0.5 mg RI-78): 113 mm Hg | Blood Pressure ([1]; time 10 min, injection 2.5 mg RI-78): 65 mm Hg | Blood Pressure ([1]; time 25 min (15 min after 2.5 mg RI-78), no further injection): 111 mm Hg | Plasma Renin Activity ([1]; time 30 min (20 min after 2.5 mg RI-78), no further injection): 28.5 | IC50 [2, 5]: 70 µM | IC50 [2, 6]: 70 µM

CC(C)[C@H](NC(=O)[C@H](Cc1ccc(Cl)cc1)NC(=O)[C@@H](N)Cc1ccccc1)C(=O)N[C@@H](Cc1ccc(O)cc1)C(=O)N[C@@H](CCCCN)C(N)=O [RI-80, Phenylalanyl-4-chlorophenylalanylvalyltyrosyllysineamide] (H-F[Phe(4-Cl)]VYK-NH2)
transport across the gut [3]: transported across the gut | IC50 [2, 7]: 40 µM

CC(C)[C@H](NC(=O)[C@H](Cc1ccccc1)NC(=O)[C@@H](N)Cc1ccccc1)C(=O)N[C@@H](Cc1ccc(Cl)cc1)C(=O)N[C@@H](CCCCN)C(N)=O [RI-85, Phenylalanylphenylalanylvalyl-4-chlorophenylalanyllysine-amide] (H-FFV[Phe(4-Cl)]K-NH2)
IC50 [2, 5]: ~100 µM | IC50 [2, 6]: 175 µM

COc1ccc(C[C@H](NC(=O)[C@@H](N)Cc2ccccc2)C(=O)N[C@H](C(=O)N[C@@H](Cc2ccc(O)cc2)C(=O)N[C@@H](CCCCN)C(N)=O)C(C)C)cc1 [RI-102, Phenylalanyl-O-methyltyrosylvalyltyrosyllysine-amide] (H-FY(Me)VYK-NH2)
IC50 [2, 5]: 190 µM

CC[C@H](C)[C@H](NC(=O)[C@H](CCC(N)=O)NC(=O)[C@@H]1CCCN1C(=O)[C@H](CCCNC(=N)N)NC(=O)[C@@H]1CCCN1C(=O)[C@H](Cc1c[nH]c2ccccc12)NC(=O)[C@@H]1CCC(=O)N1)C(=O)N1CCC[C@H]1C(=O)N1CCC[C@H]1C(=O)O [Teprotide, teprotide, reference compound]
Blood Pressure [1, 8]: 76 mm Hg | Plasma Renin Activity [1, 8]: ≥ 37

FFTYK-NH2 [RI-83, Phenylalanylphenylalanylthreonyltyrosyllysine-amide]
IC50 [2, 5]: 3750 µM

FFVFK-NH2 [RI-84, Phenylalanylphenylalanylvalylphenylalanyllysine-amide]
IC50 [2, 5]: 750 µM

FFVYK-NH2 [RI-77, Phenylalanylphenylalanylvalyltyrosyllysine-amide]
IC50 [2, 5]: 80 µM

FYVYK-NH2 [RI-81, Phenylalanyltyrosylvalyltyrosyllysine-amide]
IC50 [2, 5]: 80 µM | IC50 [2, 6]: 150 µM

Leu-Leu-Val-TyrH2
Ki [4]: 1020 µM

Phenylalanylphenylalanyl-threo-3-chloro-L-2-amino-butyryltyrosyllysine amide [RI-82]
IC50 [2, 7]: 1250 µM | IC50 [2, 9]: 2450 µM

YFVYK-NH2 [RI-79, Tyrosylphenylalanylvalyltyrosyllysine-amide]
IC50 [2, 7]: 140 µM | IC50 [2, 9]: 50 µM
